This passage reports EC50 results from patent US8748415B2 (priority 2011, dated 2014).

For the experiment, the system named is recombinant NL4-3 virus (Renilla luciferase in nef, Gag P373S). The experiment can be described thus: HIV cell culture assay (luciferase activity in MT-2 cells infected with NLRluc recombinant virus). The experiment is classed as cell-based. The conditions noted are these: NL43, MT-2 cells infected 4-5 days with NLRluc recombinant virus. Summed up: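 MT-2 cells in RPMI/10% FBS were infected with recombinant NL4-3 (NLRluc), produced by 293T transfection and titered in MT-2 by luciferase. Serial inhibitor dilutions were present throughout a 4–5 day infection. Antiviral activity was quantified as Renilla luciferase signal via a modified Dual Luciferase read.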

pEC50: −log10 of the molar value.

For `C=C(C)[C@@H]1CC[C@]2(CNCCCC(=O)OC)CC[C@]3(C)[C@H](CC[C@@H]4[C@@]5(C)CC=C(c6ccc(C(=O)O)cc6)C(C)(C)[C@@H]5CC[C@]43C)[C@@H]12` [Example 38, 4-((1R,3aS,5aR,5bR,7aR,11aS,11bR,13aR,13bR)-3a-((4-methoxy-4-oxobutylamino)methyl)-5a,5b,8,8,11a-pentamethyl-1-(prop-1-en-2-yl)-2,3,3a,4,5,5a,5b,6,7,7a,8,11,11a,11b,12,13,13a,13b-octadecahydro-1H-cyclopenta[a]chrysen-9-yl)benzoic acid], the pEC50 (class symbol) is greater than 7.00.

As for `C=C(C)[C@@H]1CC[C@]2(CNCCn3ccnc3C)CC[C@]3(C)[C@H](CC[C@@H]4[C@@]5(C)CC=C(c6ccc(C(=O)O)cc6)C(C)(C)[C@@H]5CC[C@]43C)[C@@H]12` [Example 59, 4-((1R,3aS,5aR,5bR,7aR,11aS,11bR,13aR,13bR)-5a,5b,8,8,11a-pentamethyl-3a-((2-(2-methyl-1H-imidazol-1-yl)ethylamino)methyl)-1-(prop-1-en-2-yl)-2,3,3a,4,5,5a,5b,6,7,7a,8,11,11a,11b,12,13,13a,13b-octadecahydro-1H-cyclopenta[a]chrysen-9-yl)benzoic acid], the pEC50 (class symbol) is greater than 7.00.

Take `C=C(C)[C@@H]1CC[C@]2(CNCCCN)CC[C@]3(C)[C@H](CC[C@@H]4[C@@]5(C)CC=C(c6ccc(C(=O)O)cc6)C(C)(C)[C@@H]5CC[C@]43C)[C@@H]12` [Example 67, 4-((1R,3aS,5aR,5bR,7aR,11aS,11bR,13aR,13bR)-3a-((3-aminopropylamino)methyl)-5a,5b,8,8,11a-pentamethyl-1-(prop-1-en-2-yl)-2,3,3a,4,5,5a,5b,6,7,7a,8,11,11a,11b,12,13,13a,13b-octadecahydro-1H-cyclopenta[a]chrysen-9-yl)benzoic acid]: where the note is “class symbol”, the pEC50 is greater than 7.00.

In the case of `C=C(C)[C@@H]1CC[C@]2(CN[C@@H](CC(=O)OC)C(=O)OC)CC[C@]3(C)[C@H](CC[C@@H]4[C@@]5(C)CC=C(c6ccc(C(=O)O)cc6)C(C)(C)[C@@H]5CC[C@]43C)[C@@H]12` [Example 49, 4-((1R,3aS,5aR,5bR,7aR,11aS,11bR,13aR,13bR)-3a-(((S)-1,4-dimethoxy-1,4-dioxobutan-2-ylamino)methyl)-5a,5b,8,8,11a-pentamethyl-1-(prop-1-en-2-yl)-2,3,3a,4,5,5a,5b,6,7,7a,8,11,11a,11b,12,13,13a,13b-octadecahydro-1H-cyclopenta[a]chrysen-9-yl)benzoic acid], the pEC50 (class symbol) was greater than 7.00.

For `C=C(C)[C@@H]1CC[C@]2(CNCCN3CCNC3=O)CC[C@]3(C)[C@H](CC[C@@H]4[C@@]5(C)CC=C(c6ccc(C(=O)O)cc6)C(C)(C)[C@@H]5CC[C@]43C)[C@@H]12` [Example 77, 4-((1R,3aS,5aR,5bR,7aR,11aS,11bR,13aR,13bR)-5a,5b,8,8,11a-pentamethyl-3a-((2-(2-oxoimidazolidin-1-yl)ethylamino)methyl)-1-(prop-1-en-2-yl)-2,3,3a,4,5,5a,5b,6,7,7a,8,11,11a,11b,12,13,13a,13b-octadecahydro-1H-cyclopenta[a]chrysen-9-yl)benzoic acid], the pEC50 (class symbol) was greater than 7.00.

On to `C=C(C)[C@@H]1CC[C@]2(CNCCN3CCOCC3)CC[C@]3(C)[C@H](CC[C@@H]4[C@@]5(C)CC=C(c6ccc(C(=O)O)cc6)C(C)(C)[C@@H]5CC[C@]43C)[C@@H]12` [Example 63, 4-((1R,3aS,5aR,5bR,7aR,11aS,11bR,13aR,13bR)-5a,5b,8,8,11a-pentamethyl-3a-((2-morpholinoethylamino)methyl)-1-(prop-1-en-2-yl)-2,3,3a,4,5,5a,5b,6,7,7a,8,11,11a,11b,12,13,13a,13b-octadecahydro-1H-cyclopenta[a]chrysen-9-yl)benzoic acid], for which, for the setting “class symbol”, the pEC50 is greater than 7.00.

Regarding `C=C(C)[C@@H]1CC[C@]2(CNCCn3ccnc3)CC[C@]3(C)[C@H](CC[C@@H]4[C@@]5(C)CC=C(c6ccc(C(=O)O)cc6)C(C)(C)[C@@H]5CC[C@]43C)[C@@H]12` [Example 20, 4-((1R,3aS,5aR,5bR,7aR,11aS,11bR,13aR,13bR)-3a-((2-(1H-imidazol-1-yl)ethylamino)methyl)-5a,5b,8,8,11a-pentamethyl-1-(prop-1-en-2-yl)-2,3,3a,4,5,5a,5b,6,7,7a,8,11,11a,11b,12,13,13a,13b-octadecahydro-1H-cyclopenta[a]chrysen-9-yl)benzoic acid], under “class symbol”, the negative logarithm of the EC50 (pEC50) is greater than 7.00.

For the molecule `C=C(C)[C@@H]1CC[C@]2(CN(C)CCS(=O)(=O)N3CCN(C)CC3)CC[C@]3(C)[C@H](CC[C@@H]4[C@@]5(C)CC=C(c6ccc(C(=O)O)cc6)C(C)(C)[C@@H]5CC[C@]43C)[C@@H]12` [Example 44, 4-((1R,3aS,5aR,5bR,7aR,11aS,11bR,13aR,13bR)-5a,5b,8,8,11a-pentamethyl-3a-((methyl(2-(4-methylpiperazin-1-ylsulfonyl)ethyl)amino)methyl)-1-(prop-1-en-2-yl)-2,3,3a,4,5,5a,5b,6,7,7a,8,11,11a,11b,12,13,13a,13b-octadecahydro-1H-cyclopenta[a]chrysen-9-yl)benzoic acid], the negative-log EC50 (pEC50) (numeric value) was 7.70.

In the case of `C=C(C)[C@@H]1CC[C@]2(CNCCCn3ccnc3)CC[C@]3(C)[C@H](CC[C@@H]4[C@@]5(C)CC=C(c6ccc(C(=O)O)cc6)C(C)(C)[C@@H]5CC[C@]43C)[C@@H]12` [Example 55, 4-((1R,3aS,5aR,5bR,7aR,11aS,11bR,13aR,13bR)-3a-((3-(1H-imidazol-1-yl)propylamino)methyl)-5a,5b,8,8,11a-pentamethyl-1-(prop-1-en-2-yl)-2,3,3a,4,5,5a,5b,6,7,7a,8,11,11a,11b,12,13,13a,13b-octadecahydro-1H-cyclopenta[a]chrysen-9-yl)benzoic acid], the pEC50 (class symbol) is greater than 7.00.

For the molecule `C=C(C)[C@@H]1CC[C@]2(CNCCC(=O)N3CCC(=O)CC3)CC[C@]3(C)[C@H](CC[C@@H]4[C@@]5(C)CC=C(c6ccc(C(=O)O)cc6)C(C)(C)[C@@H]5CC[C@]43C)[C@@H]12` [Example 128, 4-((1R,3aS,5aR,5bR,7aR,11aS,11bR,13aR,13bR)-5a,5b,8,8,11a-pentamethyl-3a-((3-oxo-3-(4-oxopiperidin-1-yl)propylamino)methyl)-1-(prop-1-en-2-yl)-2,3,3a,4,5,5a,5b,6,7,7a,8,11,11a,11b,12,13,13a,13b-octadecahydro-1H-cyclopenta[a]chrysen-9-yl)benzoic acid], the pEC50 (class symbol) was greater than 7.00.

Consider `C=C(C)[C@@H]1CC[C@]2(CN(CCCN3CCS(=O)(=O)CC3)C(=O)CCC(=O)O)CC[C@]3(C)[C@H](CC[C@@H]4[C@@]5(C)CC=C(c6ccc(C(=O)O)cc6)C(C)(C)[C@@H]5CC[C@]43C)[C@@H]12` [Example 16, 4-((1R,3aS,5aR,5bR,7aR,11aS,11bR,13aR,13bR)-5a,5b,8,8,11a-pentamethyl-1-(prop-1-en-2-yl)-3a-((3-(1-dioxo-thiomorpholino)propylamino)methyl)-2,3,3a,4,5,5a,5b,6,7,7a,8,11,11a,11b,12,13,13a,13b-octadecahydro-1H-cyclopenta[a]chrysen-9-yl)benzoic acid], for which, where the note is “class symbol”, the negative logarithm of the EC50 (pEC50) is greater than 7.00.

As to `C=C(C)[C@@H]1CC[C@]2(CNCCNC(C)=O)CC[C@]3(C)[C@H](CC[C@@H]4[C@@]5(C)CC=C(c6ccc(C(=O)O)cc6)C(C)(C)[C@@H]5CC[C@]43C)[C@@H]12` [Example 7, 4-((1R,3aS,5aR,5bR,7aR,11aS,11bR,13aR,13bR)-3a-((2-acetamidoethylamino)methyl)-5a,5b,8,8,11a-pentamethyl-1-(prop-1-en-2-yl)-2,3,3a,4,5,5a,5b,6,7,7a,8,11,11a,11b,12,13,13a,13b-octadecahydro-1H-cyclopenta[a]chrysen-9-yl)benzoic acid], the pEC50 (class symbol) is greater than 7.00.

With `C=C(C)[C@@H]1CC[C@]2(CNC(=O)C(F)(F)C(=O)NCCN(C)C)CC[C@]3(C)[C@H](CC[C@@H]4[C@@]5(C)CC=C(c6ccc(C(=O)O)cc6)C(C)(C)[C@@H]5CC[C@]43C)[C@@H]12` [Example 152, 4-((1R,3aS,5aR,5bR,7aR,11aS,11bR,13aR,13bR)-3a-((3-(2-(dimethylamino)ethylamino)-2,2-difluoro-3-oxopropanamido)methyl)-5a,5b,8,8,11a-pentamethyl-1-(prop-1-en-2-yl)-2,3,3a,4,5,5a,5b,6,7,7a,8,11,11a,11b,12,13,13a,13b-octadecahydro-1H-cyclopenta[a]chrysen-9-yl)benzoic acid], for the setting “class symbol”, the pEC50 was greater than 7.00.

`C=C(C)[C@@H]1CC[C@]2(CN(C)CCCN3CCS(=O)(=O)CC3)CC[C@]3(C)[C@H](CC[C@@H]4[C@@]5(C)CC=C(c6ccc(C(=O)O)cc6)C(C)(C)[C@@H]5CC[C@]43C)[C@@H]12` [Example 15, 4-((1R,3aS,5aR,5bR,7aR,11aS,11bR,13aR,13bR)-5a,5b,8,8,11a-pentamethyl-1-(prop-1-en-2-yl)-3a-((3-(1-dioxo-thiomorpholino)propylamino)methyl)-2,3,3a,4,5,5a,5b,6,7,7a,8,11,11a,11b,12,13,13a,13b-octadecahydro-1H-cyclopenta[a]chrysen-9-yl)benzoic acid]: for the setting “class symbol”, the pEC50 is greater than 7.00.

As to `C=C(C)[C@@H]1CC[C@]2(CNCCc3ccc(S(N)(=O)=O)cc3)CC[C@]3(C)[C@H](CC[C@@H]4[C@@]5(C)CC=C(c6ccc(C(=O)O)cc6)C(C)(C)[C@@H]5CC[C@]43C)[C@@H]12` [Example 36, 4-((1R,3aS,5aR,5bR,7aR,11aS,11bR,13aR,13bR)-5a,5b,8,8,11a-pentamethyl-1-(prop-1-en-2-yl)-3a-((4-sulfamylphenethylamino)methyl)-2,3,3a,4,5,5a,5b,6,7,7a,8,11,11a,11b,12,13,13a,13b-octadecahydro-1H-cyclopenta[a]chrysen-9-yl)benzoic acid], the pEC50 (class symbol) was greater than 7.00.
